| Structure (SMILES) | melting point [°C] |
| --- | --- |
| COc1cc(O)cc(/C=C/C(=O)CC(=O)/C=C/c2cc(O)cc(OC)c2)c1 [CU358, (1E,6E)-1,7-bis(3-hydroxy-5-methoxyphenyl)hepta-1,6-diene-3,5-dione] | 147 to 151 |
| O=C(/C=C/c1ccc(O)cc1)CC(=O)/C=C/c1cc(Cl)cc(Cl)c1 [CU201, (1E,6E)-1-(3,5-dichlorophenyl)-7-(4-hydroxyphenyl)hepta-1,6-diene-3,5-dione] | 165 to 172 |
| COc1cc(/C=C/C(=O)CC(=O)/C=C/c2cn(Cc3ccccc3)c3ccccc23)ccc1O [CU416, (1E,6E)-1-(1-benzyl-1H-indol-3-yl)-7-(4-hydroxy-3-methoxyphenyl)hepta-1,6-diene-3,5-dione] | 158 to 161 |
| COc1cccc(O)c1/C=C/C(=O)CC(=O)/C=C/c1ccc(O)cc1 [CU275, (1E,6E)-1-(2-hydroxy-6-methoxyphenyl)-7-(4-hydroxyphenyl)hepta-1,6-diene-3,5-dione] | 94 to 99 |
| O=C(/C=C/c1ccc(O)cc1)CC(=O)/C=C/c1ccc2ccccc2c1 [CU149, (1E,6E)-1-(4-hydroxyphenyl)-7-(naphthalen-2-yl)hepta-1,6-diene-3,5-dione] | 225 to 230 |
| O=C(/C=C/c1cccc2cccnc12)CC(=O)/C=C/c1cccc2cccnc12 [CU414, (1E,6E)-1,7-bis(quinolin-8-yl)hepta-1,6-diene-3,5-dione] | 202 to 208 |
| O=C(/C=C/c1ccc(O)cc1)CC(=O)/C=C/c1ccc2nccnc2c1 [CU348, (1E,6E)-1-(4-hydroxyphenyl)-7-(quinoxalin-6-yl)hepta-1,6-diene-3,5-dione] | 251 to 255 |
| COc1ccc(O)cc1CCC(=O)CC(=O)CCc1cc(O)ccc1OC [CU512, 1,7-bis(5-hydroxy-2-methoxyphenyl)heptane-3,5-dione] | 163 to 169 |
| Cn1cccc1/C=C/C(=O)CC(=O)/C=C/c1ccc(O)cc1 [CU120, (1E,6E)-1-(4-hydroxyphenyl)-7-(1-methyl-1H-pyrrol-2-yl)hepta-1,6-diene-3,5-dione] | 169 to 173 |
| O=C(/C=C/c1ccc(O)cc1)CC(=O)/C=C/c1ccc(O)c(Cl)c1 [CU042, (1E,6E)-1-(3-chloro-4-hydroxyphenyl)-7-(4-hydroxyphenyl)hepta-1,6-diene-3,5-dione] | 184 to 190 |
| COc1cc(/C=C/C(=O)CC(=O)/C=C/c2ccc(NC(C)=O)cc2)ccc1O [CU003, (1E,6E)-N-{4-[7-(4-hydroxy-3-methoxyphenyl)-3,5-dioxohepta-1,6-dienyl]phenyl}acetamide] | 193 to 195 |
| Cc1ccc(-n2cccc2/C=C/C(=O)CC(=O)/C=C/c2cccn2-c2ccc(C)cc2)cc1 [CU389, (1E,6E)-1,7-bis[1-(4-methylphenyl)-1H-pyrrol-2-yl]hepta-1,6-diene-3,5-dione] | 151 to 155 |
| Cc1ccc(S(=O)(=O)n2cc(/C=C/C(=O)CC(=O)/C=C/c3ccc(O)cc3)c3ccccc32)cc1 [CU403, (1E,6E)-1-(4-hydroxyphenyl)-7-(1-tosyl-1H-indol-3-yl)hepta-1,6-diene-3,5-dione] | 218 to 222 |
| COc1ccc(/C=C/C(=O)CC(=O)/C=C/c2ccc(N(C)C)c(OC)c2)cc1O [CU036, (1E,6E)-1-(4-dimethylamino-3-methoxyphenyl)-7-(3-hydroxy-4-methoxyphenyl)hepta-1,6-diene-3,5-dione] | 65 to 70 |
| O=C(/C=C/c1ccc(O)cc1)CC(=O)/C=C/c1ccccc1N1CCOCC1 [CU498, (1E,6E)-1-(4-hydroxyphenyl)-7-(2-morpholinophenyl)hepta-1,6-diene-3,5-dione] | 188 to 192 |
| O=C(/C=C/c1ccc(O)cc1)CC(=O)/C=C/c1cc(Cl)ccc1[N+](=O)[O-] [CU465, (1E,6E)-1-(5-chloro-2-nitrophenyl)-7-(4-hydroxyphenyl)hepta-1,6-diene-3,5-dione] | 241 to 250 |
| COc1ccc(/C=C/C(=O)CC(=O)/C=C/c2ccc(F)c(OC)c2)cc1O [CU139, (1E,6E)-1-(4-fluoro-3-methoxyphenyl)-7-(3-hydroxy-4-methoxyphenyl)hepta-1,6-diene-3,5-dione] | 145 to 147 |
| CN1CCN(c2ccc(/C=C/C(=O)CC(=O)/C=C/c3ccc(N4CCN(C)CC4)cc3)cc2)CC1 [CU386, (1E,6E)-1,7-bis[4-(4-methylpiperazin-1-yl)phenyl]hepta-1,6-diene-3,5-dione] | 212 to 217 |
| COc1ccc(/C=C/C(=O)CC(=O)/C=C/c2cccs2)cc1O [CU212, (1E,6E)-1-(3-hydroxy-4-methoxyphenyl)-7-(thiophen-2-yl)hepta-1,6-diene-3,5-dione] | 128 to 133 |
| COc1ccc(/C=C/C(=O)CC(=O)/C=C/c2cccc(O)c2)cc1O [CU081, (1E,6E)-1-(3-hydroxy-4-methoxyphenyl)-7-(3-hydroxyphenyl)hepta-1,6-diene-3,5-dione] | 200 to 206 |
| COc1ccc(O)c(/C=C/C(=O)CC(=O)/C=C/c2ccc(O)c(OC)c2)c1 [CU088, (1E,6E)-1-(2-hydroxy-5-methoxyphenyl)-7-(4-hydroxy-3-methoxyphenyl)hepta-1,6-diene-3,5-dione] | 78 to 80 |

| Structure (SMILES) | melting point [°C] |
| --- | --- |
| Cn1c(/C=C/C(=O)CC(=O)/C=C/c2ccc(O)cc2)cc2ccccc21 [CU126, (1E,6E)-1-(4-hydroxyphenyl)-7-(1-methyl-1H-indol-2-yl)hepta-1,6-diene-3,5-dione] | 208 to 213 |
| COc1ccc(/C=C/C(=O)CC(=O)/C=C/c2c[nH]c3cccc([N+](=O)[O-])c23)cc1O [CU463, (1E,6E)-1-(3-hydroxy-4-methoxyphenyl)-7-(4-nitro-1H-indol-3-yl)hepta-1,6-diene-3,5-dione] | 226 to 233 |
| COc1ccc(/C=C/C(=O)CC(=O)/C=C/c2ccc(Oc3ccccc3)cc2)cc1O [CU219, (1E,6E)-1-(3-hydroxy-4-methoxyphenyl)-7-(4-phenoxyphenyl)hepta-1,6-diene-3,5-dione] | 185 to 187 |
| O=C(/C=C/c1ccc(O)cc1)CC(=O)/C=C/c1cc(C(F)(F)F)ccc1F [CU473, (1E,6E)-1-(2-fluoro-5-trifluoromethylphenyl)-7-(4-hydroxyphenyl)hepta-1,6-diene-3,5-dione] | 168 to 174 |
| CN(C)C(=O)c1ccccc1/C=C/C(=O)CC(=O)/C=C/c1ccc(O)cc1 [CU479, (1E,6E)-1-[2-(dimethylaminocarbonyl)phenyl]-7-(4-hydroxyphenyl)hepta-1,6-diene-3,5-dione] | 210 to 218 |
| COc1ccc(/C=C/C(=O)CC(=O)/C=C/c2ccccn2)cc1O [CU218, (1E,6E)-1-(3-hydroxy-4-methoxyphenyl)-7-(pyridin-2-yl)hepta-1,6-diene-3,5-dione] | 182 to 187 |
| CC(C)(C)OC(=O)N1CCc2ccc(/C=C/C(=O)CC(=O)/C=C/c3ccc(O)cc3)cc21 [CU419, (1E,6E)-1-[1-(tert-butoxycarbonyl)-indolin-6-yl]-7-(4-hydroxyphenyl)hepta-1,6-diene-3,5-dione] | 111 to 118 |
| O=C(/C=C/c1ccc(O)cc1)CC(=O)/C=C/c1cc(O)ccc1-c1cccc2ccccc12 [CU538, (1E,6E)-1-[5-hydroxy-2-(naphthalen-1-yl)phenyl]-7-(4-hydroxyphenyl)hepta-1,6-diene-3,5-dione] | 215 to 221 |
| COc1cc(/C=C/C(=O)CC(=O)/C=C/c2ccco2)ccc1O [CU015, (1E,6E)-1-(furan-2-yl)-7-(4-hydroxy-3-methoxyphenyl)hepta-1,6-diene-3,5-dione] | 48 to 50 |
| COc1cc(O)cc(/C=C/C(=O)CC(=O)/C=C/c2ccc(O)cc2)c1 [CU180, (1E,6E)-1-(4-hydroxyphenyl)-7-(3-hydroxy-5-methoxyphenyl)hepta-1,6-diene-3,5-dione] | 161 to 165 |
| Cn1cc(/C=C/C(=O)CC(=O)/C=C/c2ccc(O)cc2)c2ccccc21 [CU123, (1E,6E)-1-(4-hydroxyphenyl)-7-(1-methyl-1H-indol-3-yl)hepta-1,6-diene-3,5-dione] | 185 to 190 |
| COc1cc(/C=C/C(=O)CC(=O)/C=C/c2ccc(O)cc2)cc(OC)c1O [CU134, (1E,6E)-1-(4-hydroxy-3,5-dimethoxyphenyl)-7-(4-hydroxyphenyl)hepta-1,6-diene-3,5-dione] | 228 to 233 |
| CCN(CC)c1ccc(/C=C/C(=O)CC(=O)/C=C/c2ccc(OC)c(O)c2)c(O)c1 [CU278, (1E,6E)-1-(4-diethylamino-2-hydroxyphenyl)-7-(3-hydroxy-4-methoxyphenyl)hepta-1,6-diene-3,5-dione] | 101 to 108 |
| COc1cc(/C=C/C(=O)CC(=O)/C=C/c2cccc(O)c2O)ccc1O [CU096, (1E,6E)-1-(2,3-dihydroxyphenyl)-7-(4-hydroxy-3-methoxyphenyl)hepta-1,6-diene-3,5-dione] | 82 to 89 |
| O=C(/C=C/c1ccc(O)cc1)CC(=O)/C=C/c1ccccc1N1CCCCC1 [CU497, (1E,6E)-1-(4-hydroxyphenyl)-7-[2-(piperidin-1-yl)phenyl]hepta-1,6-diene-3,5-dione] | 77 to 84 |
| O=C(/C=C/c1ccc(O)c(Cl)c1)CC(=O)/C=C/c1ccc(O)c(Cl)c1 [CU387, (1E,6E)-1,7-bis(3-chloro-4-hydroxyphenyl)hepta-1,6-diene-3,5-dione] | 203 to 208 |
| COc1cc(O)ccc1/C=C/C(=O)CC(=O)/C=C/c1ccc(O)cc1 [CU083, (1E,6E)-1-(4-hydroxyphenyl)-7-(4-hydroxy-2-methoxyphenyl)hepta-1,6-diene-3,5-dione] | 105 to 110 |
| COc1ccc(OC)c(/C=C/C(=O)CC(=O)/C=C/c2ccc(O)cc2)c1 [CU075, (1E,6E)-1-(2,5-dimethoxyphenyl)-7-(4-hydroxyphenyl)hepta-1,6-diene-3,5-dione] | 70 to 74 |
| COc1ccc(/C=C/C(=O)CC(=O)/C=C/c2cc(Cl)ccc2Cl)cc1O [CU185, (1E,6E)-1-(2,5-dichlorophenyl)-7-(3-hydroxy-4-methoxyphenyl)hepta-1,6-diene-3,5-dione] | 140 to 146 |
| O=C(/C=C/c1ccc(O)cc1)CC(=O)/C=C/c1ccc2[nH]ncc2c1 [CU349, (1E,6E)-1-(4-hydroxyphenyl)-7-(1H-indazol-5-yl)hepta-1,6-diene-3,5-dione] | 148 to 152 |

From US8962674B2 (Tokyo Institute of Technology, priority 2006, dated 2015)
